Tests used:
Type in all cases: in vivo
Echinochloa crus-galli [1] = assay: Herbicidal action pre-emergence (greenhouse pot trial); conditions: application rate 320 g/ha, scored after about 3 weeks
Outline: (§1)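 Pre-emergence soil-surface spray, 320 g/ha or lower, WP/EC formulations in water with 0.5% additive, 600 L/ha. Greenhouse, ~3 wk. Visual % efficacy vs untreated controls (100% = plants dead, 0% = like control).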

Abutilon theophrasti [2] = assay: as above; conditions: application rate 320 g/ha, scored after about 3 weeks
Outline: as §1

Amaranthus retroflexus [3] = assay: as above; conditions: application rate 320 g/ha, scored after about 3 weeks
Outline: as §1

Veronica persica [4] = assay: as above; conditions: application rate 320 g/ha
Outline: as §1

Cyperus esculentus = assay: as above; conditions: application rate 320 g/ha
Outline: as §1

Setaria viridis [5] = assay: as above; conditions: application rate 320 g/ha, scored after about 3 weeks
Outline: as §1

Avena fatua [6] = assay: as above; conditions: application rate 320 g/ha
Outline: as §1

Hordeum murinum [7] = assay: as above; conditions: application rate 320 g/ha
Outline: as §1

Matricaria inodora [8] = assay: as above; conditions: application rate 320 g/ha, scored after about 3 weeks
Outline: as §1

Pharbitis purpurea [9] = assay: as above; conditions: application rate 320 g/ha
Outline: as §1

Alopecurus myosuroides [10] = assay: as above; conditions: application rate 320 g/ha, scored after about 3 weeks
Outline: as §1

Lolium rigidum [11] = assay: as above; conditions: application rate 320 g/ha
Outline: as §1

Stellaria media [12] = assay: as above; conditions: application rate 320 g/ha, scored after about 3 weeks
Outline: as §1

Viola tricolor [13] = assay: as above; conditions: application rate 320 g/ha, scored after about 3 weeks
Outline: as §1

Zea mays [14] = assay: Crop compatibility post-emergence (greenhouse pot trial)
Outline: (§2)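 Visual % rating about 3 weeks post-treatment against untreated plants (100% dead, 0% unaffected). Post-emergence spray of aqueous WP/EC preparations with 0.5% additive at 600 L/ha water, applied at one-leaf stage to greenhouse pot-grown crops in sandy loam.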

Glycine max [15] = assay: as above; conditions: application rate 20 g/ha
Outline: as §2

Oryza sativa = assay: as above; conditions: application rate 5 g/ha
Outline: as §2

Triticum aestivum = assay: as above; conditions: application rate 80 g/ha
Outline: as §2

Zea mays [16] = assay: Crop compatibility pre-emergence (greenhouse pot trial); conditions: application rate 80 g/ha, effect vs untreated controls
Outline: (§3)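 Crop plants were sown and covered with soil, then the soil surface was treated with formulated compound as an aqueous suspension or emulsion containing 0.5% additive, applied at a water rate equivalent to 600 L/ha. Damage was rated visually in percent relative to untreated pots after roughly three weeks in the greenhouse.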

Glycine max [17] = assay: as above; conditions: application rate 80 g/ha, effect vs untreated controls
Outline: as §3

Echinochloa crus-galli [18] = assay: Herbicidal action post-emergence (greenhouse pot trial); conditions: scored visually after about 3 weeks vs untreated controls
Outline: (§4)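 Post-emergence spray at one-leaf stage (2–3 wk after sowing, sandy loam, greenhouse); WP/EC in water + 0.5% additive; 600 L/ha; rate 80 g/ha or less. Visual % efficacy at ~3 wk vs untreated (100 = dead).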

Abutilon theophrasti [19] = assay: as above; conditions: scored visually after about 3 weeks vs untreated controls
Outline: as §4

Amaranthus retroflexus [20] = assay: as above; conditions: scored visually after about 3 weeks vs untreated controls
Outline: as §4

Veronica persica [21] = assay: as above
Outline: as §4

Setaria viridis [22] = assay: as above; conditions: scored visually after about 3 weeks vs untreated controls
Outline: as §4

Polygonum convolvulus = assay: as above; conditions: scored visually after about 3 weeks vs untreated controls
Outline: as §4

Hordeum murinum [23] = assay: as above; conditions: scored visually after about 3 weeks vs untreated controls
Outline: as §4

Matricaria inodora [24] = assay: as above; conditions: scored visually after about 3 weeks vs untreated controls
Outline: as §4

Pharbitis purpurea [25] = assay: as above
Outline: as §4

Stellaria media [26] = assay: as above; conditions: scored visually after about 3 weeks vs untreated controls
Outline: as §4

Viola tricolor [27] = assay: as above
Outline: as §4

Avena fatua [28] = assay: as above; conditions: application rate 20 g/ha, scored visually after about 3 weeks vs untreated controls
Outline: as §4

Alopecurus myosuroides [29] = assay: as above; conditions: application rate 20 g/ha, scored visually after about 3 weeks vs untreated controls
Outline: as §4

Digitaria sanguinalis = assay: as above; conditions: application rate 20 g/ha
Outline: as §4

Lolium rigidum [30] = assay: as above; conditions: application rate 20 g/ha, scored visually after about 3 weeks vs untreated controls
Outline: as §4

**Q.** Which results are given for CC(Sc1cc(-n2c(=O)cc(C(F)(F)F)n(C)c2=O)c(F)cc1Cl)C(=O)OCC1CCCO1 (centres unmarked) [I.1-71]?
**A.** Echinochloa crus-galli (Efficacy in %) (Echinochloa crus-galli [1]): 100%; Abutilon theophrasti (Efficacy in %) (Abutilon theophrasti [2]): 100%; Amaranthus retroflexus (Efficacy in %) (Amaranthus retroflexus [3]): 100%; Veronica persica (Efficacy in %) (Veronica persica [4]): 100%; Cyperus esculentus (Efficacy in %) (Cyperus esculentus): 80%; Setaria viridis (Efficacy in %) (Setaria viridis [5]): 100%; Avena fatua (Efficacy in %) (Avena fatua [6]): 90%; Hordeum murinum (Efficacy in %) (Hordeum murinum [7]): 90%; Matricaria inodora (Efficacy in %) (Matricaria inodora [8]): 100%; Pharbitis purpurea (Efficacy in %) (Pharbitis purpurea [9]): 100%; Alopecurus myosuroides (Efficacy in %) (Alopecurus myosuroides [10]): 100%; Lolium rigidum (Efficacy in %) (Lolium rigidum [11]): 90%; Stellaria media (Efficacy in %) (Stellaria media [12]): 100%; Viola tricolor (Efficacy in %) (Viola tricolor [13]): 100%; Zea mays (Efficacy in %) (Zea mays [14]; application rate 80 g/ha): 20%; Glycine max (Efficacy in %) (Glycine max [15]): 20%; Oryza sativa (Efficacy in %) (Oryza sativa): 20%; Triticum aestivum (Efficacy in %) (Triticum aestivum): 20%; Zea mays (Efficacy in %) (Zea mays [16]): 0%; Glycine max (Efficacy in %) (Glycine max [17]): 0%; Echinochloa crus-galli (Efficacy in %) (Echinochloa crus-galli [18]; application rate 80 g/ha): 100%; Abutilon theophrasti (Efficacy in %) (Abutilon theophrasti [19]; application rate 80 g/ha): 100%; Amaranthus retroflexus (Efficacy in %) (Amaranthus retroflexus [20]; application rate 80 g/ha): 100%; Veronica persica (Efficacy in %) (Veronica persica [21]; application rate 80 g/ha): 100%; Setaria viridis (Efficacy in %) (Setaria viridis [22]; application rate 80 g/ha): 100%; Polygonum convolvulus (Efficacy in %) (Polygonum convolvulus; application rate 80 g/ha): 100%; Hordeum murinum (Efficacy in %) (Hordeum murinum [23]; application rate 80 g/ha): 80%; Matricaria inodora (Efficacy in %) (Matricaria inodora [24]; application rate 80 g/ha): 100%; Pharbitis purpurea (Efficacy in %) (Pharbitis purpurea [25]; application rate 80 g/ha): 100%; Stellaria media (Efficacy in %) (Stellaria media [26]; application rate 80 g/ha): 100%; Viola tricolor (Efficacy in %) (Viola tricolor [27]; application rate 80 g/ha): 100%

**Q.** What does the source list for CC(Sc1cc(-n2c(=O)cc(C(F)(F)F)n(C)c2=O)c(F)cc1Cl)C(=O)OC1COC1 (centres unmarked) [I.1-115]?
**A.** Zea mays (Efficacy in %) (Zea mays [14]; application rate 5 g/ha): 20%; Oryza sativa (Efficacy in %) (Oryza sativa): 0%; Abutilon theophrasti (Efficacy in %) (Abutilon theophrasti [19]; application rate 20 g/ha): 100%; Amaranthus retroflexus (Efficacy in %) (Amaranthus retroflexus [20]; application rate 20 g/ha): 100%; Veronica persica (Efficacy in %) (Veronica persica [21]; application rate 20 g/ha): 100%; Setaria viridis (Efficacy in %) (Setaria viridis [22]; application rate 20 g/ha): 100%; Avena fatua (Efficacy in %) (Avena fatua [28]): 80%; Polygonum convolvulus (Efficacy in %) (Polygonum convolvulus; application rate 20 g/ha): 100%; Hordeum murinum (Efficacy in %) (Hordeum murinum [23]; application rate 20 g/ha): 100%; Matricaria inodora (Efficacy in %) (Matricaria inodora [24]; application rate 20 g/ha): 100%; Pharbitis purpurea (Efficacy in %) (Pharbitis purpurea [25]; application rate 20 g/ha): 100%; Alopecurus myosuroides (Efficacy in %) (Alopecurus myosuroides [29]): 80%; Digitaria sanguinalis (Efficacy in %) (Digitaria sanguinalis): 100%; Stellaria media (Efficacy in %) (Stellaria media [26]; application rate 20 g/ha): 100%; Viola tricolor (Efficacy in %) (Viola tricolor [27]; application rate 20 g/ha): 100%

**Q.** With CC(Sc1cc(-n2c(=O)cc(C(F)(F)F)n(C)c2=O)c(F)cc1Cl)C(=O)OC1CCOC1 (centres unmarked) [I.1-121] as the compound, how does the “Echinochloa crus-galli (Efficacy in %)” value (Echinochloa crus-galli [18]; application rate 20 g/ha) read?
**A.** 100%

**Q.** And the “Abutilon theophrasti (Efficacy in %)” value (Abutilon theophrasti [19]; application rate 20 g/ha)?
**A.** 100%

**Q.** And the “Amaranthus retroflexus (Efficacy in %)” value (Amaranthus retroflexus [20]; application rate 20 g/ha)?
**A.** 100%

**Q.** What about the “Veronica persica (Efficacy in %)” value (Veronica persica [21]; application rate 20 g/ha) of the same compound?
**A.** 100%

**Q.** And the “Setaria viridis (Efficacy in %)” value (Setaria viridis [22]; application rate 20 g/ha)?
**A.** 100%

**Q.** What about the “Avena fatua (Efficacy in %)” value (Avena fatua [28]) of the same compound?
**A.** 80%

**Q.** And the “Polygonum convolvulus (Efficacy in %)” value (Polygonum convolvulus; application rate 20 g/ha)?
**A.** 100%

**Q.** And the “Hordeum murinum (Efficacy in %)” value (Hordeum murinum [23]; application rate 20 g/ha)?
**A.** 80%

**Q.** And the “Matricaria inodora (Efficacy in %)” value (Matricaria inodora [24]; application rate 20 g/ha)?
**A.** 100%

**Q.** What about the “Pharbitis purpurea (Efficacy in %)” value (Pharbitis purpurea [25]; application rate 20 g/ha) of the same compound?
**A.** 100%

**Q.** What about the “Lolium rigidum (Efficacy in %)” value (Lolium rigidum [30]) of the same compound?
**A.** 80%

**Q.** And the “Digitaria sanguinalis (Efficacy in %)” value (Digitaria sanguinalis)?
**A.** 100%

**Q.** And the “Stellaria media (Efficacy in %)” value (Stellaria media [26]; application rate 20 g/ha)?
**A.** 100%
